In PubChem BioAssay AID192 (DTP/NCI, 2004):
Values joined by “and” are separate entries in the source; they are usually repeats but may differ in a detail not shown here. Equal entries are not always repeated. Inconclusive results and toxic doses are left out.

System: BDF1 mice, B16 melanoma ip, median survival T/C
Test: NCI In Vivo Anticancer Drug Screen. Data for tumor model B16 Melanoma (intraperitoneal) in B6D2F1 (BDF1) mice
Details: endpoint: median survival time, higher = longer survival
Procedure, shortened: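 Transplantable tumor model; survival or tumor size measured; reported as T/C, treated over vehicle control.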

[1] = dose: 1.56 mg/kg/injection, schedule: Q01DX009 (ip), vehicle: saline
[2] = dose: 6.25 mg/kg/injection, schedule: Q01DX009 (ip), vehicle: saline
[3] = dose: 12.5 mg/kg/injection, schedule: Q01DX009 (ip), vehicle: saline
[4] = dose: 25.0 mg/kg/injection, schedule: Q01DX009 (ip), vehicle: saline with Tween-80
[5] = dose: 50.0 mg/kg/injection, schedule: Q01DX009 (ip), vehicle: saline with Tween-80
[6] = dose: 100.0 mg/kg/injection, schedule: Q01DX009 (ip), vehicle: saline with Tween-80
[7] = dose: 12.5 mg/kg/injection, schedule: Q01DX009 (ip), vehicle: Klucel (hydroxypropylcellulose) (HPC)
[8] = dose: 25.0 mg/kg/injection, schedule: Q01DX009 (ip), vehicle: Klucel (hydroxypropylcellulose) (HPC)
[9] = dose: 50.0 mg/kg/injection, schedule: Q01DX009 (ip), vehicle: Klucel (hydroxypropylcellulose) (HPC)
[10] = dose: 50.0 mg/kg/injection, schedule: Q01DX009 (ip), vehicle: saline
[11] = dose: 3.12 mg/kg/injection, schedule: Q01DX009 (ip), vehicle: saline with Tween-80
[12] = dose: 6.25 mg/kg/injection, schedule: Q01DX009 (ip), vehicle: saline with Tween-80
[13] = dose: 6.25 mg/kg/injection, schedule: Q01DX009 (ip), vehicle: Klucel (hydroxypropylcellulose) (HPC)

COc1ccc(NC(=O)Oc2ccc(-c3ccccc3)cc2Br)cc1
T/C (dose: 100.0 mg/kg/injection, schedule: Q01DX009 (ip), vehicle: Klucel (hydroxypropylcellulose) (HPC)): 93 % of control | T/C (dose: 100.0 mg/kg/injection, schedule: Q04DX003 (ip), vehicle: Klucel (hydroxypropylcellulose) (HPC)): 103 % of control | T/C (dose: 200.0 mg/kg/injection, schedule: Q01DX009 (ip), vehicle: Klucel (hydroxypropylcellulose) (HPC)): 93 % of control | T/C (dose: 200.0 mg/kg/injection, schedule: Q04DX003 (ip), vehicle: Klucel (hydroxypropylcellulose) (HPC)): 112 % of control | T/C (dose: 400.0 mg/kg/injection, schedule: Q01DX009 (ip), vehicle: Klucel (hydroxypropylcellulose) (HPC)): 96 % of control | T/C (dose: 400.0 mg/kg/injection, schedule: Q04DX003 (ip), vehicle: Klucel (hydroxypropylcellulose) (HPC)): 109 % of control

NCC(O)c1ccc(O)c(O)c1 (stereo unspecified)
T/C [1]: 97 % of control and 105 % of control | T/C (dose: 3.12 mg/kg/injection, schedule: Q01DX009 (ip), vehicle: saline): 95 % of control and 107 % of control | T/C [2]: 100 % of control and 106 % of control | T/C [3]: 99 % of control and 102 % of control

CC1=C2CC3CCC(C)C2(CC1)C3(C)C (stereo unspecified)
T/C (dose: 25.0 mg/kg/injection, schedule: Q04DX003 (ip), vehicle: saline with Tween-80): 105 % of control | T/C (dose: 50.0 mg/kg/injection, schedule: Q04DX003 (ip), vehicle: saline with Tween-80): 100 % of control | T/C (dose: 100.0 mg/kg/injection, schedule: Q04DX003 (ip), vehicle: saline with Tween-80): 91 % of control

CCOC(=O)C(NC(N)=O)C(=O)OCC
T/C (dose: 50.0 mg/kg/injection, schedule: Q01DX009 (ip), vehicle: other): 104 % of control | T/C (dose: 100.0 mg/kg/injection, schedule: Q01DX009 (ip), vehicle: other): 104 % of control | T/C (dose: 200.0 mg/kg/injection, schedule: Q01DX009 (ip), vehicle: other): 103 % of control | T/C (dose: 400.0 mg/kg/injection, schedule: Q01DX009 (ip), vehicle: other): 104 % of control

CCCCNC(=S)N/N=C/c1ccccn1
T/C [4]: 102 % of control | T/C [5]: 99 % of control | T/C [6]: 104 % of control

O=c1[nH]c2ccc(Br)cc2c(=O)o1
T/C [4]: 91 % of control | T/C [5]: 91 % of control | T/C [6]: 86 % of control and 88 % of control | T/C (dose: 200.0 mg/kg/injection, schedule: Q01DX009 (ip), vehicle: saline with Tween-80): 86 % of control

Cc1ccc(NC(=S)NC(Cc2ccccc2)c2ccccc2)cc1 (stereo unspecified)
T/C [7]: 102 % of control | T/C [8]: 100 % of control | T/C (dose: 37.5 mg/kg/injection, schedule: Q04DX003 (ip), vehicle: Klucel (hydroxypropylcellulose) (HPC)): 100 % of control | T/C [9]: 100 % of control | T/C (dose: 75.0 mg/kg/injection, schedule: Q04DX003 (ip), vehicle: Klucel (hydroxypropylcellulose) (HPC)): 92 % of control | T/C (dose: 150.0 mg/kg/injection, schedule: Q04DX003 (ip), vehicle: Klucel (hydroxypropylcellulose) (HPC)): 100 % of control

Cc1cccc(C)c1NC(=O)c1ccccc1
T/C [3]: 93 % of control | T/C [8]: 89 % of control | T/C [9]: 100 % of control | T/C [10]: 90 % of control

C=COCC(C)C (tested in a mixture with another compound)
T/C (dose: 0.39 mg/kg/injection, schedule: Q01DX009 (ip), vehicle: saline): 108 % of control | T/C (dose: 0.78 mg/kg/injection, schedule: Q01DX009 (ip), vehicle: saline): 100 % of control | T/C (dose: 1.56 mg/kg/injection, schedule: Q01DX009 (ip), vehicle: saline with Tween-80): 88 % of control | T/C [1]: 88 % of control and 94 % of control | T/C (dose: 3.13 mg/kg/injection, schedule: Q01DX009 (ip), vehicle: saline): 89 % of control | T/C [2]: 86 % of control

C[CH2][Pb]([Br])([CH2]C)[CH2]C
T/C [11]: 91 % of control | T/C [12]: 94 % of control | T/C (dose: 12.5 mg/kg/injection, schedule: Q01DX009 (ip), vehicle: saline with Tween-80): 89 % of control | T/C [4]: 94 % of control

CCCCCCCCCCCC[N+](C)(C)C (tested in a mixture with another compound)
T/C (dose: 3.5 mg/kg/injection, schedule: Q01DX009 (ip), vehicle: saline): 98 % of control | T/C (dose: 7.0 mg/kg/injection, schedule: Q01DX009 (ip), vehicle: saline): 86 % of control | T/C (dose: 14.0 mg/kg/injection, schedule: Q01DX009 (ip), vehicle: saline): 90 % of control

CN(C)c1ccc(/C=C/c2cc[n+](C)cc2)cc1
T/C (dose: 1.32 mg/kg/injection, schedule: Q04DX003 (ip), vehicle: saline with Tween-80): 95 % of control | T/C (dose: 4.0 mg/kg/injection, schedule: Q04DX003 (ip), vehicle: saline with Tween-80): 150 % of control | T/C (dose: 8.0 mg/kg/injection, schedule: Q04DX003 (ip), vehicle: saline with Tween-80): 117 % of control

C[N+](C)(C)Cc1ccccc1
T/C [13]: 109 % of control | T/C [7]: 107 % of control | T/C [8]: 101 % of control

c1cc[c]([Pb]([c]2ccccc2)([c]2ccccc2)[n]2ccc3ccccc32)cc1
T/C (dose: 2.08 mg/kg/injection, schedule: Q01DX009 (ip), vehicle: saline with Tween-80): 102 % of control | T/C [11]: 97 % of control

Cc1ccc([N+](=O)[O-])cc1NC(=O)Oc1ccc(Cl)cc1
T/C (dose: 25.0 mg/kg/injection, schedule: Q04DX009 (ip), vehicle: Klucel (hydroxypropylcellulose) (HPC)): 94 % of control | T/C (dose: 50.0 mg/kg/injection, schedule: Q04DX009 (ip), vehicle: Klucel (hydroxypropylcellulose) (HPC)): 104 % of control | T/C (dose: 100.0 mg/kg/injection, schedule: Q04DX003 (ip), vehicle: carboxymethylcellulose (CMC)): 93 % of control | T/C (dose: 100.0 mg/kg/injection, schedule: Q04DX009 (ip), vehicle: Klucel (hydroxypropylcellulose) (HPC)): 96 % of control | T/C (dose: 400.0 mg/kg/injection, schedule: Q04DX003 (ip), vehicle: carboxymethylcellulose (CMC)): 86 % of control

CN(C)CCCNC(=S)S
T/C [2]: 100 % of control | T/C [3]: 97 % of control | T/C (dose: 12.5 mg/kg/injection, schedule: Q04DX003 (ip), vehicle: saline): 111 % of control | T/C (dose: 25.0 mg/kg/injection, schedule: Q01DX009 (ip), vehicle: saline): 110 % of control | T/C (dose: 25.0 mg/kg/injection, schedule: Q04DX003 (ip), vehicle: saline): 111 % of control | T/C (dose: 50.0 mg/kg/injection, schedule: Q04DX003 (ip), vehicle: saline): 94 % of control

O=C1Nc2ccccc2/C1=C\c1ccccc1O
T/C (dose: 1.56 mg/kg/injection, schedule: Q01DX009 (ip), vehicle: Klucel (hydroxypropylcellulose) (HPC)): 106 % of control | T/C (dose: 3.12 mg/kg/injection, schedule: Q01DX009 (ip), vehicle: Klucel (hydroxypropylcellulose) (HPC)): 106 % of control | T/C [13]: 91 % of control | T/C [7]: 105 % of control | T/C [8]: 89 % of control

COc1cc([C@@H]2c3cc4c(cc3[C@H](O)[C@H]3COC(=O)[C@@H]23)OCO4)cc(OC)c1OC
T/C (dose: 6.0 mg/kg/injection, schedule: Q01DX009 (ip), vehicle: Klucel (hydroxypropylcellulose) (HPC)): 105 % of control | T/C (dose: 12.0 mg/kg/injection, schedule: Q01DX009 (ip), vehicle: Klucel (hydroxypropylcellulose) (HPC)): 113 % of control | T/C (dose: 24.0 mg/kg/injection, schedule: Q01DX009 (ip), vehicle: Klucel (hydroxypropylcellulose) (HPC)): 113 % of control

CC1CCC2(OC1)OC1CC3C4CCC5CC(O)CCC5(C)C4CCC3(C)C1C2C (stereo unspecified)
T/C (dose: 10.0 mg/kg/injection, schedule: Q01DX009 (ip), vehicle: Klucel (hydroxypropylcellulose) (HPC)): 99 % of control | T/C (dose: 20.0 mg/kg/injection, schedule: Q01DX009 (ip), vehicle: Klucel (hydroxypropylcellulose) (HPC)): 97 % of control | T/C (dose: 40.0 mg/kg/injection, schedule: Q01DX009 (ip), vehicle: Klucel (hydroxypropylcellulose) (HPC)): 95 % of control

O=C1C(=O)C(Cl)=C(Cl)C(Cl)=C1Cl
T/C (dose: 0.75 mg/kg/injection, schedule: Q01DX009 (ip), vehicle: saline): 106 % of control | T/C (dose: 1.5 mg/kg/injection, schedule: Q01DX009 (ip), vehicle: saline): 93 % of control | T/C (dose: 3.0 mg/kg/injection, schedule: Q01DX009 (ip), vehicle: saline): 93 % of control

O=[N+]([O-])c1ccc(/C=C2/c3cc(Cl)ccc3-c3c(Cl)cc(Cl)cc32)o1
T/C [10]: 93 % of control | T/C (dose: 100.0 mg/kg/injection, schedule: Q01DX009 (ip), vehicle: saline): 100 % of control | T/C (dose: 200.0 mg/kg/injection, schedule: Q01DX009 (ip), vehicle: saline): 90 % of control | T/C (dose: 400.0 mg/kg/injection, schedule: Q01DX009 (ip), vehicle: saline): 88 % of control

CCNC(=O)OCc1c(COC(=O)NCC)c(-c2ccc(Cl)c(Cl)c2)n2c1CCC2
T/C [12]: 122 % of control | T/C [4]: 90 % of control
